Measurements from US8889662B2, “Method to alter sex ratios in avian offspring” (University of Georgia Research Foundation, Inc., priority 2009, dated 2014).

Tests used:
[1] = system: zebra finches and pigeons; settings: literature; cited from earlier work
[2] = system: zebra finch (Taeniopygia guttata); experiment: Example 2: disruption of ovulation, oviposition and embryo development after injection, zebra finches; assay type: in vivo; settings: 20 ug injection
Method: Zebra finch (Taeniopygia guttata) pairs obtained from a breeding colony maintained at The University of Georgia were housed in individual cages and provided feed and water ad libidumn. Birds were kept under a 14 hour (h) light (L):10 h dark (D) light schedule. Egg-laying was monitored daily and eggs marked to record sequence order. Females were injected intraperitoneally after the first or second egg of the clutch was laid with one of three treatments: 20 μg of CORT dissolved in 50 μl peanut oil and 10% ethanol (CORT), 20 μg of progesterone dissolved in […] and 10% ethanol (P), or 50 μl of control peanut oil (C). A fourth set of females received no injection treatment (UN). […] The follicle ovulating 5 hours after injection, was laid approximately 36 hours after injection (FIG. 3). Ovulating follicles exposed to treatments were laid as the 3rd or 4th egg in the sequence (3rd egg if treatment was administered on the day the 1st egg was laid and the 4th egg in the sequence if treatment was administered on the day the 2nd egg was laid). Eggs were allowed to incubate in the nest for 8-12 days prior to collection to allow sufficient embryonic development for DNA extraction and molecular sexing analyses. Occasionally these treatments disrupted the oviposition immediately following the injection. Females that delayed oviposition after treatment were excluded from analysis because it was not possible to determine whether the egg collected the following day was from the ovulation event that occurred immediately following injection or from a delayed oviposition of the follicle ovulated the day prior to injection. Females that delayed oviposition were allowed to complete the clutch after which the treatment was repeated during the next clutch. […] Only 1/10 females treated with progesterone laid successfully. For this reason, progesterone treatments were eliminated from further analyses.

[3] = system: female chickens; settings: at the time of meiotic segregation, Correa et al. 2005; cited from earlier work

Structure (SMILES)	sex ratio after testosterone treatment [1]	eggs with delayed oviposition [2] [eggs]	eggs with no visible development [2] [eggs]	females in which ovulation and oviposition were disrupted [2] [%]	females that laid successfully ([2]; number of treated females)	sex ratio after acute progesterone treatment [3]
C[C@]12CC[C@H]3[C@@H](CCC4=CC(=O)CC[C@@]43C)[C@@H]1CC[C@@H]2O [testosterone]	induced a skew towards males					
CC(=O)[C@H]1CC[C@H]2[C@@H]3CCC4=CC(=O)CC[C@]4(C)[C@H]3CC[C@]12C [progesterone]		5	4	90	1/10	induced a sex ratio skew towards females
